Results published in patent publication US10407488B2, “Therapy for treatment or prevention of conditions associated with bleeding or hypocoagulation” (THE REGENTS OF THE UNIVERSITY OF CALIFORNIA, priority 2013, dated 2019).

Assays:
Balb/c mice [1] = experiment: Tail clip bleeding assay, APC-induced bleeding in Balb/c mice; assay type: in vivo, mouse
Method: Mice were anesthetized with Isoflurane 3%, placed on temperature controlled heating pads (37° C.), and the distal portion of the tail was cut at 1.5 mm diameter after which the tail was immersed in a predefined volume of 37° C. saline (0.9% NaCl) for 20 minutes. To study effects on bleeding and clot stability, tubes were changed after 10 minutes to collect blood for the first and second 10 minutes separately. Blood loss was determined by the hemoglobin concentration in the saline solution after red cell lysis with 2% acetic acid and measured by absorbance at 490 nm. Using a hemoglobin standard derived from defined blood volumes, blood loss was calculated assuming a hematocrit of 46% and expressed in μL/g body weight. Groups of Balb/c mice were injected intravenously (tail vein) with equal volumes (200 μL) of ^superFVa or saline 2 minutes prior to intravenous injection of rhAPC (Xigris®). Immediately after APC injection tail cut was performed. All agents were diluted in sterile sodium chloride 0.9% for injection (Hospira Inc).

Balb/c mice [2] = experiment: Ex vivo whole blood aPTT after intravenous APC in Balb/c mice; parameters: species or system mouse
Method: Recombinant murine APC was administered intravenously to Balb/c mice by tail vein injection 2 minutes prior to retroorbital blood harvest in siliconized microcapillaries (75 μL) prefilled with 20 μL Sodium-Citrate (3.8%). Whole blood aPTT was performed immediately, whereby 50 μL of blood were mixed with 50 μL of aPTT reagent (APTT-XL, Pacific Hemostasis) and incubated at 37° C. for 3 minutes in the presence of FVa or buffer. Following addition of 25 μL of 130 mM CaCl2 in HBS, 0.5% BSA, the clotting time was recorded using an ST4 coagulometer (Diagnostica Stago).

[3] = test system: aPTT clotting time in human plasma; experiment: aPTT clotting assay in human plasma with rhAPC; assay type: biochemical
Method: (§1) APC-mediated inactivation of FVa was analyzed in ETP assays and aPTT clotting assays. FVa mutants were incubated with equal volumes of either recombinant human APC (Xigris®) or buffer in human and murine Balb/c plasma.
Plasma (50 μL) was mixed with 50 μL of a PTT reagent (APTT-XL, Pacific Hemostasis) and incubated at 37° C. for 3 minutes in the presence of FVa either with recombinant human APC or buffer. Following addition of 25 μL of 50 mM CaCl2 in HBS, 0.5% BSA, the clotting time was recorded using an ST4 coagulometer (Diagnostica Stago).

[4] = test system: thrombin generation in murine Balb/c plasma with rhAPC; experiment: Thrombin generation in murine Balb/c plasma in the presence of rhAPC; assay type: biochemical, mouse
Method: BU titer values for FVIII antibodies added to FVIII-deficient plasma were determined using a modified Nijmegen Bethesda assay (Barrow and Lollar; JTH 2006, 4:2223-2229). Briefly, antibody was serially diluted in HBS with 0.05% Tween 80 and mixed 1:1 with pooled normal plasma that was supplemented with 100 mM Imidazole, pH 7.0. Samples were incubated at 37° C. for 2 hours then assayed by aPTT with APTT XL reagent (Pacific Hemostasis). A standard curve was derived from a serial dilution of normal plasma into FVIII deficient plasma that was also mixed 1:1 with HBST and incubated at 37° C. for 2 hours. Percent FVIII activity was plotted versus mg/ml of antibody and residual activity of 50% was defined as 1 BU/ml. In addition, endogenous thrombin potential (ETP) assays were performed as described (3). Briefly FVa mutants or saline were added to human or murine plasma (George King Bio-Medical; mouse source, 50% v/v) supplemented with […] corn trypsin inhibitor (Haematologic Technologies), 10 mM CaCl2, 10 μM phospholipid vesicles (80% phosphatidylcholine, 20% phosphatidylserine, prepared as described (6), 0.2 pM soluble tissue factor (Innovin®, Dade Behring), and 0.4 mM Z-Gly-Gly-Arg-AMC (thrombin substrate, Bachem) in HBS. After mixing, 100 μL was transferred to a FluoroNunc microtiter plate at 37° C. to monitor fluorescence (excitation at 360 nm/emission at 460 nm; Gemini EM fluorescent plate reader (Molecular Devices)). Fluorescence time course data were converted to nM thrombin as described (7). ETP, defined as the area under the curve, was determined using Prism 5.04 (Graphpad).
as §1

For “^superFVa: engineered APC-resistant FVa variant (SEQ ID NO:4): R306Q, R506Q, R679Q, Cys609-Cys1691 disulfide, S2183A, B-domain deleted”, the mean blood loss (Balb/c mice [1]; ^superFVa 5 U/mL 2 minutes prior to APC 1.25 mg/kg, 20 minutes) was 21 µL/g, the mean blood loss (Balb/c mice [1]; ^superFVa 25 U/mL 2 minutes prior to APC 1.25 mg/kg, 20 minutes) was 9.2 µL/g and the mean blood loss (Balb/c mice [1]; ^superFVa 25 U/mL + APC, first 10 minutes) was 4.3 µL/g. The mean blood loss (Balb/c mice [1]; ^superFVa 25 U/mL + APC, second 10 minutes) was 4.8 µL/g, the mean blood loss (Balb/c mice [1]; ^superFVa iv 3.5 mg/kg 2 min prior to wt APC 1.25 mg/kg) was 9.2 µL/g and the “effect on whole blood aPTT clotting times” value (Balb/c mice [2]; 1 nM added to whole blood after iv APC 0.5 mg/kg) was “significantly normalized aPTT clotting times”. For the same substance, the “mean whole blood aPTT” value (Balb/c mice [2]; FVa variant added ex vivo to whole blood drawn after APC 0.5 mg/kg injection) was 30 s, the aPTT ([3]; 0.05 U/mL FVa variants, 10 nM APC, human plasma, ~100 seconds without FVa) was “fully corrected the aPTT” and the “lower concentration normalizing the aPTT compared to FVa” value ([3]; human plasma with APC) was 100 fold. For the same substance, the ETP restored ([4]; ETP maximally suppressed by APC) was 90-100% and the “effect on thrombin generation suppressed by APC” value ([4]; concentrations where ^superFVa restores) was “fully restored thrombin generation”.
